These results are taken from US20240190866A1, “POLYHYDROXYLATED INDOLIZIDINE AND PYRROLIZIDINE DERIVATIVES AND USES THEREOF” (Academia Sinica, priority 2021, published 2024).

In series [1] the test system is HepG2 cells. Kind of series: Anti-proliferative activity assay (MTT). The following applies: 72 h. The format is cell-based, human. The protocol:
(§1) Human liver cancer HepG2 cells and Huh7 cells, breast cancer MDA-MB-231 cells, pancreatic cancer PANC-1 cells, and non-small cell lung (NSCL) cancer H1975 cells were maintained in Dulbecco's Modified Eagle Medium supplemented containing 10% fetal bovine serum (FBS), 100 units/ml penicillin and […] streptomycin in 37° C. incubator with 5% CO2.
(§2) Anti-proliferative activity of HepG2, Huh7 or PANC-1 cells was determined by 3-(4,5-dimethylthiazol-2-yl)-2,5-diphenyltetrazolium bromide (MTT) assay, while that of H1975 or MDA-MB-231 cells was determined by luminescent assay with the aid of commercial kit CellTiter-Glo® (Promega).
(§3) Cancer cells including HepG2, Huh7 and PANC-1 cells were respectively seeded at 10^4, 4×10^3, and 5×10^3 cells/well in 96-well plates and maintained for 14-16 hours. Cells were treated with dimethylsulfoxide (DMSO) or test compounds in varied concentrations for 72 h. Cells were then washed with PBS twice, added a medium containing 3-(4,5-dimethylthiazol-2-yl)-2,5-diphenyltetrazolium bromide (MTT) at a final concentration of 0.5 mg/mL, and incubated for 4 h at 37° C. in a humidified incubator containing 5% CO2 in air. Cells having functional succinate dehydrogenase of mithchondria would convert MTT to formazan. Then, the medium was replaced with 100 μL of DMSO for 30 min at room temperature, and the 96-well plate was read by an ELISA reader at 550 nm to get the absorbance density values. The IC50 values of death cell lines were calculated accordingly.

The test system of series [2] is PANC-1 cells. Put plainly: Anti-proliferative activity assay (MTT). The format is cell-based, human. The following applies: 72 h. The protocol:
as §1, §2, §3

Series [3] has as its system Huh7 cells. Put plainly: Anti-proliferative activity assay (MTT). The format is cell-based, human. The following applies: 72 h. The protocol: as §1, §2, §3
For series [4], the target named is human Golgi α-mannosidase II (α-hGMII) (Homo sapiens (Human), UniProt Q16706). Put plainly: Golgi α-mannosidase II (α-hGMII) activity assay, 4-MU-α-D-mannopyranoside substrate. The format is biochemical. The following applies: for IC50: pH 7.0, 37° C., 2 h; for Selectivity Index (SI): selectivity toward α-hGMII than α-hLM. How it is done: (§4) Compounds were diluted to give the final concentration of 100 μM and mixed with 4-MU-α-D-mannopyranoside as substrate and human Golgi α-mannosidase II in phosphate buffer (0.1 M Sodium phosphate dibasic, pH 7.0) or human lysosomal α-mannosidase in citric phosphate buffer (0.1 M Sodium phosphate monobasic monohydrate, 0.5 mM citric acid monohydrate, pH 4.6). The assay was carried out at 37° C. for a certain time (1 h for α-hLM, 2 h for α-hGMII). Stop solution (0.5 M K2CO3(aq), pH 10.8) was then added to the reactions and the fluorescence was determined at 355 nm excitation and 460 nm emission (SpectraMax M5, Molecular Devices). Inhibition was performed as relative enzyme activity to control. The active compounds were selected for libraries preparation and further tested at lower concentration to determine their IC50 values. The assays performed in 384-wells of the microtiter plates.

Series [5] is described as follows: Serum biochemistry assay in Huh7 xenograft mice. The format is in vivo, NOD-SCID mice. The following applies: 30 mg/kg i.p., twice a week; for ALT / AST / BUN / CRE / TBIL: serum. The protocol: All blood specimens were collected in tubes and were left at 25° C. for 30 min to clot and centrifuged for 10 min at 1200 g. The concentrations of the following biochemical serum analytes collected were measured with FUJI DRI-CHEM 500i analyzer (FUJIFILM Corp., Tokyo, Japan) using the manufacturer's reagents and according to the manufacturer's instructions: Alanine Aminotransferase ALT), Aspartate Aminotransferase (AST), Blood Urea Nitrogen (BUN), Creatinine (CRE) and Total Bilirubin (TBIL).
(§5) HCC xenografts were established in 5-6 weeks old NOD-SCID mice by subcutaneous inoculation of about 5×10^6 Huh7 cells suspended in 50 μL PBS+50 μL, Matrigel (Corning, 394230) in the left and right flanks of each mouse. After one week of inoculation, tumors were palpable and the mice were assigned randomly to 1 of 4 treatment groups. Group 1 (vehicle control group, n=6) mice only received a vehicle solution containing Kolliphor EL (Sigma Aldrich, C5135), 99.9% ethanol and water in a ratio of 1:1:6. Groups 2, 3, 4 and 5 mice were intraperitoneally injected with the test compound (e.g., compound ACK900, ACK901, or ACK902) (30 mg/kg, ip, n=7/group) or sorafenib (30 mg/kg, ip, n=6/group), twice per week for 25 days. The tumor volume was calculated by the formula of a ratioinal ellipsoid: [0.5236×short axis) m1^2×(long axis)m^2], and the tumor volume was measured twice per week. All mice were sacrificed at 27 days after the treatment started. Tumor tissues were isolated, photographed and weighted.
In vivo tumor growth inhibition studies in human Huh7 xenograft rodents were performed in accordance with procedures as described in the “Material and Method” section. Xenograft tumors were generated by implanting Huh7 cells (5×10^6) subcutaneously into the left and right flanks of each NOD-SCID mouse. Starting on the 7th day after the inoculation of Huh7 cells, the mice were injected with ACK900, ACK901, ACK902 or sorafenib intraperitoneally (i.p.) at a dose of 30 mg/kg and twice a week for 34 days.

Series [6] has as its system PANC-1 cells. Put plainly: Transwell invasion assay. The format is cell-based, human. The following applies: PANC-1, transwell. The protocol:
(§6) Chemotaxis experiments with human HepG2Huh7, or PANC-1 cells were assayed by using transwells (Millipore). The cells to be analyzed (5×10^4 cells/well) were seeded in the upper chambers of the 24-well plate in 400 μL serum-free medium. FBS (10%) was used as the chemoattractant with or without different concentrations of the test compound (e.g., ACK900, ACK901, ACK902) in the lower chamber, and the plate was incubated under standard conditions. After incubation for 18 hours, the media in the upper chambers were aspirated and washed with phosphate-buffered saline (PBS) twice. Both non-migrated and migrated cells were fixed with 4% paraformaldehyde (PFA) for 30 minutes at room temperature, stained with 2% crystal violet solution. The non-invading cells were removed from the upper surface of the insert membrane with a cotton swab. The images were taken using an imaging reader (Cytation 5, BioTek, VT, U.S.A.) and analyzed using NIH ImageJ software. Percent in the results represent percent of initial number of cells in the migrating and nonmigrating Cell fractions.

Series [7] relates to Huh7 cells. Kind of series: Transwell invasion assay. The format is cell-based, human. The protocol: as §6
Series [8] deals with all cancer cell lines (HepG2, Huh7, PANC-1, H1975, MDA-MB-231). Put plainly: Anti-proliferative activity, pooled statement over all cancer cell lines. The format is cell-based, human. The conditions noted are these: read-out: half maximum inhibitory concentration (IC50), range in all cancer cell lines. How it is done:
as §2, §3
(§7) For H1975 and MDA-MB-231, cells were respectively seeded at 5×10^3 cells/well in 96-well plates and maintained for 14-16 hours. Cells were treated with dimethylsulfoxide (DMSO) or test compounds in varied concentrations for 48 h. Cell viability was monitored using Cell-TiterGlo (Promega), a kit that measures the quantity of ATP present in the cell culture, an indicator of metabolically active cells. The IC50 values of death cell lines were calculated accordingly.

Series [9] has as its target human lysosomal α-mannosidase (α-hLM) (Homo sapiens (Human), UniProt O00754). Kind of series: α-Mannosidase (α-hLM) activity assay, 4-MU-α-D-mannopyranoside substrate. Type of series: biochemical. The following applies: pH 4.6, 37° C., 1 h. How it is done:
as §4

The test system of series [10] is H1975 cells. Kind of series: Anti-proliferative activity assay (CellTiter-Glo). Type of series: cell-based, human. The following applies: 48 h. The protocol: as §1, §2, §7
In general terms: ATP-based viability assays read luminescence as a measure of living cells.

Series [11] relates to MDA-MB-231 cells. Put plainly: Anti-proliferative activity assay (CellTiter-Glo). The format is cell-based, human. How it is done:
as §1, §2, §7

In series [12] the test system is PANC-1 cells. Put plainly: Transwell migration assay. The format is cell-based, human. The following applies: PANC-1, transwell, 18 hours. The protocol: as §6
Series [13] concerns Huh7 cells. Put plainly: Transwell migration assay. The format is cell-based, human. The following applies: 18 hours. The protocol: as §6
The subject of series [14] is HepG2 cells. The following applies: Data from Int. J. Med. Sci. 2017, 14, 523; cited from earlier work.
The test system of series [15] is Huh7 cells. The following applies: Data from Int. J. Med. Sci. 2017, 14, 523; cited from earlier work.
For series [16], the system named is Huh7 xenograft tumors. Kind of series: Human hepatocarcinoma (HCC) Huh7 cells xenograft animal model. The following applies: 30 mg/kg i.p., twice a week. Type of series: in vivo, NOD-SCID mice.
Description: A total of 34 NOD-SCID mice to (5- to 6-week-old) were maintained in micro-isolator units on a standard laboratory diet. Animals were housed under humidity- and temperature-controlled conditions and the light/dark cycle was set at 12-hour intervals, maintained under specified and opportunistic pathogen-free conditions. Mice were quarantined at least 1 week before experimental manipulation
as §5, with “weighted. […]” for “weighted.”
For orientation: In xenograft studies the graft and the host belong to different species.

Where two headings read alike, the source gives them in different places.

Sequence of human Golgi α-mannosidase II (α-hGMII) (Q16706 whole entry): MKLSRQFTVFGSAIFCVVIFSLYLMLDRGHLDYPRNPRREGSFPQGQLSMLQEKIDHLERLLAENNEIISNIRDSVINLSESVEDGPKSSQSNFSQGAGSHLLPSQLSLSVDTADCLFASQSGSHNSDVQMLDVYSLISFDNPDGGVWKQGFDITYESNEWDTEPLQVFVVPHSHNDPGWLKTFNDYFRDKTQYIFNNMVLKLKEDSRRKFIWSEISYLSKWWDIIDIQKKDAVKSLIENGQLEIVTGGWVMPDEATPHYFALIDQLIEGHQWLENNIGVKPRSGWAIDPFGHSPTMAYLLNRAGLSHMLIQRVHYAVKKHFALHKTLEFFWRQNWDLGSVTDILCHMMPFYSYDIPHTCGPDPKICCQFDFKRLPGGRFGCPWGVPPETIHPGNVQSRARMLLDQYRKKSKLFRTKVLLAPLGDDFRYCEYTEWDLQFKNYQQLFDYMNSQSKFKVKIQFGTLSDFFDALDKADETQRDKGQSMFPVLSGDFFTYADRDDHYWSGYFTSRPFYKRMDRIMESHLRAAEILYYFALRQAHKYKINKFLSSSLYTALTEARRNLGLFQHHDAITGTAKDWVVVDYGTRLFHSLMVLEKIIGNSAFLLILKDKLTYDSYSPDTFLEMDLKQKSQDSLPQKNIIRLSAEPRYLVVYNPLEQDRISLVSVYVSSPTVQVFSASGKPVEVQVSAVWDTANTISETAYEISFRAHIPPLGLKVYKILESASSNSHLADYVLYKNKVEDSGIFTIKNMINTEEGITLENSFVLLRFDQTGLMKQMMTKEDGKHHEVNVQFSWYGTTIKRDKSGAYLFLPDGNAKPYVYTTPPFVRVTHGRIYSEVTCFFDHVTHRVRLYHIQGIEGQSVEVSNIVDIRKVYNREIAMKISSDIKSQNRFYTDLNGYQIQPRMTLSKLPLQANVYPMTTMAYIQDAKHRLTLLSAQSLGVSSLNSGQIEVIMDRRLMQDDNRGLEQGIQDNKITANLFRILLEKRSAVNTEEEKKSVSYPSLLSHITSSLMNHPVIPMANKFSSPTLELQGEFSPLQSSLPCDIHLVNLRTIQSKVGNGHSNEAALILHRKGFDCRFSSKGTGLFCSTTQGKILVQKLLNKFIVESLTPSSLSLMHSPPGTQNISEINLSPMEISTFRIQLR
Sequence of human lysosomal α-mannosidase (α-hLM) (O00754 50-1011): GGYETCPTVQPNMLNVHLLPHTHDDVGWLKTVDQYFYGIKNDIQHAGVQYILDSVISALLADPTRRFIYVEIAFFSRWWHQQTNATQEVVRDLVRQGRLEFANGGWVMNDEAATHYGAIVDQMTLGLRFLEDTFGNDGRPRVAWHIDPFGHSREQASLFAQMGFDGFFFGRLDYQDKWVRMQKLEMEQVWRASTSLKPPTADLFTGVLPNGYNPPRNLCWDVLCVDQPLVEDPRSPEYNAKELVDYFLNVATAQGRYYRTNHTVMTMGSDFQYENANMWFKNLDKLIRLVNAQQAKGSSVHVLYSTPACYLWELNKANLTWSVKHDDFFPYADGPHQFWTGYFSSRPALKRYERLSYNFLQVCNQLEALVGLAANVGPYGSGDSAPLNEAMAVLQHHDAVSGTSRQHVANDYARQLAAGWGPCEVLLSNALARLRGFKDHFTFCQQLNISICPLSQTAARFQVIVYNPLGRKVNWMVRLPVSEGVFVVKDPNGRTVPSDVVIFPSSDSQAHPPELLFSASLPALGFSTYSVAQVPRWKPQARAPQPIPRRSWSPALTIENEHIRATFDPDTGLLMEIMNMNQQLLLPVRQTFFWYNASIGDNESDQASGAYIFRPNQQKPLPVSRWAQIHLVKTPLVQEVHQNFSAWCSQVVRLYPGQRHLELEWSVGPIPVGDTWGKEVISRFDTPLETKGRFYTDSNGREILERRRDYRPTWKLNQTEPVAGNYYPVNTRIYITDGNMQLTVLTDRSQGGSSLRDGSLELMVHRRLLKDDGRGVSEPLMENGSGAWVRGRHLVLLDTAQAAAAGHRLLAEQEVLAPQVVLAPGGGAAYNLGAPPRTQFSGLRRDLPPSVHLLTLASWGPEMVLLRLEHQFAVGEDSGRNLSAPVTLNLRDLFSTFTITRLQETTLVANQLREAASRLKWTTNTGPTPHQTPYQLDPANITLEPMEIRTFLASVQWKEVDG

On to `CCCCCC[C@H]1CC[C@H](c2ccc(NC(=S)NC[C@@H]3[C@@H](O)[C@@H](O)[C@H]4[C@H](O)CCCN43)cc2)CC1` [ACK901], for which the IC50 is 1800 nM in series [1]; 300 nM in series [2]; 1300 nM in [3]; 1000 nM in series [4]; 300 to 19100 nM in series [8]; 21500 nM in series [9]. The IC50 came out at 7700 nM in series [10] and 1000 nM in series [11] (48 h). Also, the ALT in [5] was determined as 74.85 ± 82.13 U/L. The AST in series [5] turned out to be 173.85 ± 95.67 U/L. In addition, the BUN in series [5] was 21.87 ± 3.77 mg/dL. The compound also registered a CRE in [5] of 0.47 ± 0.18 mg/dL. Further, the TBIL in series [5] was 0.64 ± 0.37 mg/dL. For the same compound, the invasive capability entry in [6] and in series [7] was “remarkably decreased” throughout. The migratory capability entry in [12] and in [13] was “remarkably decreased” in each case.

With `CCC[C@H]1CC[C@H](c2ccc(C(=O)NC[C@@H]3[C@@H](O)[C@@H](O)[C@H]4[C@H](O)CCCN43)cc2)CC1` [ACK902], the IC50 is 14500 nM in series [1]; 1600 nM in [2]; 3700 nM in series [3]; 1600 nM in [4]; 300 to 19100 nM in series [8]; 6800 nM in series [9]. The IC50 in series [10] is 11500 nM; in [11] (48 h), 9900 nM. Further, the “Selectivity Index (SI)” value in series [4] was determined as 4.3. In [5], this compound returned an ALT of 64.42 ± 57.49 U/L. The same compound showed an AST in [5] of 250 ± 182.44 U/L. Besides, the BUN in [5] stood at 23.87 ± 4.30 mg/dL. In series [5], the CRE was found to be 0.43 ± 0.11 mg/dL. Moreover, the TBIL in [5] was 0.9 ± 0.56 mg/dL. Also, the invasive capability result in series [6] and in series [7] was “remarkably decreased” in each case. Further, the migratory capability entry in [12] and in [13] was “remarkably decreased” each time.

On to `O=C(NC[C@@H]1[C@@H](O)[C@@H](O)[C@H]2[C@H](O)CCCN21)c1ccc(-c2ccccc2)cc1` [ACK903], for which, in series [4], the IC50 was 190 nM and the “Selectivity Index (SI)” value is 3.4. Besides, in series [9], the IC50 turned out to be 650 nM.

For `COc1ccc(NC(=S)NC[C@@H]2[C@@H](O)[C@@H](O)[C@H]3[C@H](O)CCCN32)cc1` [ACK904], the IC50 in series [4] is 800 nM; in series [9], 950 nM. Moreover, the “Selectivity Index (SI)” value in series [4] is given as 1.2.

For the compound `O[C@@H]1[C@H](O)[C@@H](CNC(=S)Nc2ccccc2)N2CCC[C@@H](O)[C@H]12` [ACK905], in [4], the IC50 was determined as 1300 nM and the “Selectivity Index (SI)” value amounted to 1.1. Moreover, in series [9], the IC50 came out at 1500 nM.

On to `COc1cccc2c1C(=O)c1c(O)c3c(c(O)c1C2=O)C[C@@](O)(C(=O)CO)C[C@@H]3O[C@H]1C[C@H](N)[C@H](O)[C@H](C)O1` [Doxorubicin, doxorubicin, reference compound], for which the IC50 in series [11] (Homo sapiens, MDA-MB-231, 48 h) was in the range of 1300 to 3000 nM.

As for `CNC(=O)c1cc(Oc2ccc(NC(=O)Nc3ccc(Cl)c(C(F)(F)F)c3)cc2)ccn1` [Sorafenib, sorafenib, reference compound], the IC50 in [14] was 7420 nM. The IC50 in series [15] is 5970 nM. Moreover, in series [5], the “serious side effects including hepatoxicity and nephrotoxicity” value was “no serious side effects including hepatoxicity and nephrotoxicity were observed”; the ALT worked out at 61.33 ± 54.45 U/L; the AST is 135.33 ± 90.76 U/L; the BUN amounted to 23 ± 2.53 mg/dL. In [5], this compound displayed a CRE of 0.35 ± 0.19 mg/dL and a TBIL of 0.73 ± 0.32 mg/dL. The “signs of harm or decreased body weight” value in series [16] was “none of the mice injected with ACK900-ACK902 or sorafenib exhibited signs of harm or decreased body weight”. Further, the “tumor volume vs control” value in series [16] (P<0.05) is “Significant reduction”.

Consider `O[C@H]1[C@H]2[C@H](O)CCCN2C[C@H]1O` [Swainsonine, swainsonine, reference compound], for which, in [4], the IC50 came out at 40 nM and the “Selectivity Index (SI)” value was found to be 2.
